These results are taken from patent US8637237B2, “Methods, compositions, and systems for the identification of species-specific or developmental stage-specific insecticides” (The University of North Carolina at Greensboro, priority 2003, dated 2014).

The target of data set [1] is T1, FXR (Rattus norvegicus, UniProt Q62735).
T1 sequence (Q62735 1-469): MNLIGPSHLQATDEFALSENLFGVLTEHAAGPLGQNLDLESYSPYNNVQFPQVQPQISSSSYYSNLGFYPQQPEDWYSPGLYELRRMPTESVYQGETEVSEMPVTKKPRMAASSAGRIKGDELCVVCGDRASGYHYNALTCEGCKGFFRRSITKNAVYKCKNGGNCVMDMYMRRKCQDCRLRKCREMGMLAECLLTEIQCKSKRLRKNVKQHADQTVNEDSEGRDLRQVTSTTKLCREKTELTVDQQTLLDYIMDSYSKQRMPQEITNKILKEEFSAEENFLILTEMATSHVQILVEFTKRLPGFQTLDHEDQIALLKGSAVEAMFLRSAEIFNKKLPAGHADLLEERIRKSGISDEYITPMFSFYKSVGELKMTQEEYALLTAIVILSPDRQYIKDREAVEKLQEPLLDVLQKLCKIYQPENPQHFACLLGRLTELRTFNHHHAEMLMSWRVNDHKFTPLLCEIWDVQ
T1 sequence (P28700 1-467 partner): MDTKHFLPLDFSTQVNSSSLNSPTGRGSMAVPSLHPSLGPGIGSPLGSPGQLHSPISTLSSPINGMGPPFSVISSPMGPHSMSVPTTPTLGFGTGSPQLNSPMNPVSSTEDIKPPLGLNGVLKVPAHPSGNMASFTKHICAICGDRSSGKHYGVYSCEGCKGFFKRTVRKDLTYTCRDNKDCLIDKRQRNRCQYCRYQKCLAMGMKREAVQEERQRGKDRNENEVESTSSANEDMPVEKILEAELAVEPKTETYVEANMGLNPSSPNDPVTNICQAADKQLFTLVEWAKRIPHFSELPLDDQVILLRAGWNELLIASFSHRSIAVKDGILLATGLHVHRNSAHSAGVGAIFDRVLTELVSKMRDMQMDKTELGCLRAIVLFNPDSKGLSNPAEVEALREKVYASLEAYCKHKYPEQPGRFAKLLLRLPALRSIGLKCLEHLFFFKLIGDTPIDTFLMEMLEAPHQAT
As to the kind of experiment: cell-based. Put shortly: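 CHO cells co-transfected with FXR, mouse RXRα and a (EcRE)5-ΔMTV-CAT reporter, with β-galactosidase for normalization. An RXR-dependent CRBPII-CAT reporter was run in parallel. Cells were exposed to candidate juvenoids for 24 h; CAT activity normalized to β-gal and expressed as fold induction over vehicle controls.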

The conditions of data set [2]: via 20,22-dihydroxycholesterol intermediate; read-out: apparent Km of metabolism to pregnenolone; cited from earlier work.
For data set [3], the system named is Leptinotarsa decemlineata EcR. As to the kind of experiment: Leptinotarsa decemlineata EcR/USP, response to agonists (FIG. 7, 8). The class given is cell-based. As to conditions: FIG. 8. Here is the method:
Unless noted otherwise, 100 ng of each EcR and USP plasmid was transfected into 2 ml of cell culture medium. As noted above, a reporter gene carrying five tandem copies of the hsp27 ecdysone response element (Riddihough and Pelham, 1986) is attached to a constitutive thymidine kinase promoter and a luciferase reporter gene (pEcREtk-LUC) and cotransfected into the cells along with vectors expressing EcR, USP, and a constitutively active β-galactosidase gene with lipofection, following manufacturer's protocols. The subsequent measure of luciferase activity reflects ecdysteroid-inducible transcription.
After a 4 hour transfection period, the hormone treatment was applied by diluting stock solutions of muristerone A (murA; Alexis Corporation, San Diego, Calif.), JHI (Scitech), JHIII (Sigma, St Louis, Mo.), and/or 20E (Sigma, St Louis, Mo.) in DMSO. The cells were harvested 24 hours after treatment and the contents of the cells extracted for performing the luciferase and β-galactosidase assays.
Leptinotarsa decemlineata (Ld) USP constructs were made by sub-cloning two different LdUSP inserts into the pVP16 vector (Clontech). This vector encodes a fusion protein of the herpes simplex virus […] viral protein (VP16) activation domain (AD) fused to LdUSP. The LdUSP portion of the fusion gene was isolated by PCR in two different lengths from a plasmid, pBSKS(+)-LdUSP. […]

In data set [4] the target is T2, GGF (Rattus norvegicus, UniProt Q62735).
T2 construct: the GR amino terminus and DBD (appending 23 amino acids downstream from the conserved gly-met) were fused to the FXR LBD; expressed in transfected cells; host or cells: CHO
As to the kind of experiment: GGF chimera (GR amino terminus and DBD, FXR LBD) in CHO cells. The conditions noted are these: data not shown. It counts as cell-based. An excerpt: A plasmid was constructed that expresses a hybrid protein (GGF) consisting of the human GR amino terminus and DBD linked to the carboxyl terminus of FXR.
In these experiments, CHO cells were transfected with receptor plasmids expressing GGF and mouse RXRα and a luciferase reporter plasmid containing the upstream 1.5 kbp of the MTV promoter.

For data set [5], the system named is RAR. As to the kind of experiment: RAR-based transcriptional assay. It counts as cell-based. As to conditions: data not shown.
The target of data set [6] is RXR (Mus musculus, UniProt P28700). Nature of the data set: RXR-based transcriptional assay. The class given is cell-based. The conditions noted are these: data not shown.
In data set [7] the test system is PPAR. Nature of the data set: PPAR-based transcriptional assay. It counts as cell-based. As to conditions: data not shown.
The target in data set [8] is GR (Homo sapiens, UniProt P04150). As to the kind of experiment: GR-based transcriptional assay. The class given is cell-based. As to conditions: data not shown.
Chain of GR (P04150 whole entry): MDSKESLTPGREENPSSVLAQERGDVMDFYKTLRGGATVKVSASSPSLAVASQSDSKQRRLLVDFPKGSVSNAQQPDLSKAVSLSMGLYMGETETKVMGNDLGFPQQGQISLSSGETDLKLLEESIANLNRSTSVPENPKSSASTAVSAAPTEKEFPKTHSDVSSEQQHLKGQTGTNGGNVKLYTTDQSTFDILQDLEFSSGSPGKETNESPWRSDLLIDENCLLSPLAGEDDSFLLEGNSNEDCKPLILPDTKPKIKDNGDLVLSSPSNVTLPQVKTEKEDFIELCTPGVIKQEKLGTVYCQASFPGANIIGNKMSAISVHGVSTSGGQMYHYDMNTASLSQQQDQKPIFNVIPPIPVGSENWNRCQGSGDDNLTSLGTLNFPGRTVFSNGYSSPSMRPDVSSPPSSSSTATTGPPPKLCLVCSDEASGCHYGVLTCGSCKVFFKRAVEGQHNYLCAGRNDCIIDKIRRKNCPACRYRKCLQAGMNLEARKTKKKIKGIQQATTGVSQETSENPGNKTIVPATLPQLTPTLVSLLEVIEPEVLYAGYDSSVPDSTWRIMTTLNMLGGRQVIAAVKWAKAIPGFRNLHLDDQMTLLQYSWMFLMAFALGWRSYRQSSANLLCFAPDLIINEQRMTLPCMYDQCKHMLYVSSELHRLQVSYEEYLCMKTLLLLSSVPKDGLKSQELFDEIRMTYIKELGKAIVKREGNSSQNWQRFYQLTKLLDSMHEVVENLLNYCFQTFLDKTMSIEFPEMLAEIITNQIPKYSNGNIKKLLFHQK

For orientation: Km means the concentration of substrate that gives half-maximal velocity. With `CC(C)CC[C@@H](O)[C@@H](C)[C@H]1CC[C@H]2[C@@H]3CC=C4C[C@@H](O)CC[C@]4(C)[C@H]3CC[C@]12C` [22R-hydroxycholesterol, 22R-Hydroxycholesterol], the “FXR-dependent transcription, induction” value in data set [1] (7.5 μM) is listed as 10 fold. For the same compound, the Km in data set [2] is 7 µM.

For the compound `COc1cccc(C(=O)NN(C(=O)c2cc(C)cc(C)c2)C(C)(C)C)c1C` [RH2485], the “stimulation of Leptinotarsa EcR, agonists compared” value in data set [3] was “much greater stimulation by RH2485, than by murA or 20E”.

As a reminder, the inhibition is the drop in the measured response relative to a control, in per cent. For the compound `O=c1ccc2cc(O)c(O)cc2o1` [esculetin], the “FXR-dependent activity, induction” value in data set [1] (1 mM) was “ineffectiveness”. Also, the inhibition at 100 µM in data set [1] (CHO, read-out: inhibition of FXR activity induced by farnesol) stood at 44%. In addition, the “inhibition of CDCA-induced GGF-dependent activity” value in data set [4] is listed as 54%.

Usually EC50 stands for the midpoint of the concentration-response curve. Take `COc1ccc2c(c1)OC(C)(C)C=C2` [precocene I]: the “reduction of FXR activity of mouse liver microsome extract by ethyl acetate-soluble products” value in data set [1] (100 μM TLC-purified precocene I incubated with CD-1 mouse liver microsomes, NADPH, 37° C., one hour) came to 70%. Moreover, the “FXR-dependent activity, induction” value in data set [1] (dose not stated) was 15 fold. Also, the “FXR activity of TLC-separated material from precocene I” value in data set [1] (eluted from silica, hexane-ethyl acetate (9:1)) is listed as “did not affect FXR”. The EC50 in data set [1] (read-out: EC50 for FXR-dependent CAT activity) came to 150 µM. Besides, the “activity in RAR-based transcriptional assay” value in data set [5] was “inactive”. Also, in data set [6], the “activity in RXR-based transcriptional assay” value is “inactive”. Moreover, the “activity in PPAR-based transcriptional assay” value in data set [7] is “inactive”. For the same compound, the “activity in GR-based transcriptional assay” value in data set [8] is “inactive”.
